This passage reports Ki results from ChEMBL document CHEMBL1149893, “Recent developments of carbonic anhydrase inhibitors as potential anticancer drugs” (J Med Chem, 2008).

For this experiment, the target named is Carbonic anhydrase 9 (Homo sapiens, UniProt Q16790).

Broadly, the Ki is the equilibrium dissociation constant of an inhibitor or competing ligand from its target. The low end stands for higher affinity, the high end for lower affinity. Regarding `COC(=O)[C@H]1O[C@@H](On2cc(CNC(=O)c3ccc(S(N)(=O)=O)cc3)nn2)[C@H](O)[C@@H](O)[C@@H]1O`, the inhibition constant (Ki) came to 0.023 µM.

With `CC(=O)OC[C@H]1O[C@@H](On2cc(CNC(=O)c3ccc(S(N)(=O)=O)cc3)nn2)[C@H](OC(C)=O)[C@@H](OC(C)=O)[C@@H]1OC(C)=O`, the inhibition constant (Ki) was found to be 0.076 µM.
